In publication PMC7052193, “Nanobody-enabled monitoring of kappa opioid receptor states” (Nature Communications, 2020):
Where “and” joins values, the source holds several entries; their conditions need not be identical. Identical values can stand only once.

Legend:
[1] = biological target: T1, KOR (Homo sapiens, UniProt P41145); assay: Competition binding with 3H-JDTic in the absence or presence of 5 µM Nb6 or Nb39
[2] = biological target: T1, KOR; assay: Real-time BRET kinetics of KOR–Nb39; type: cell-based; conditions: SalA / Buffer
[3] = biological target: T1, KOR; assay: Real-time BRET kinetics of KOR–Nb6; type: cell-based; conditions: for BRET, KOR + Nb6: SalA / Buffer
[4] = biological target: T2, MOR (Homo sapiens, UniProt P35372); assay: BRET assay MOR and Nb6; type: cell-based; conditions: Log [Drug]
T2 construct: expressed in transfected cells; host or cells: HEK 293T (by the general BRET protocol; not repeated for MOR)

NC(=O)c1ccc(Oc2ccc(CN3CCC[C@H]3c3cccnc3)cc2)c(F)c1 [LY2459989]
increase of binding affinity in the presence of Nb6 [1]: ~ 6 fold | Ki ([1]; read-out: Ki ± SEM): 3.4 ± 0.25 nM

O=C(N[C@@H]1C=CC2[C@H]3Cc4ccc(O)c5c4[C@@]2(CCN3CC2CC2)[C@H]1O5)c1cccc(I)c1 (some centres unmarked) [MP1104]
effect of Nb6 on binding affinity [1]: only slightly affected

COC(=O)[C@@H]1C[C@H](OC(C)=O)C(=O)[C@H]2[C@@]1(C)CC[C@H]1C(=O)O[C@H](c3ccoc3)C[C@]21C [Sal A, Salvinorin A]
BRET, KOR + Nb39 ([2]; time 5 min): 0.0262 and 0.02211 and 0.02102 and 0.02289 | BRET, KOR + Nb39 ([2]; time 6 min): 0.3036 and 0.3141 and 0.3188 and 0.3115 | BRET, KOR + Nb39 ([2]; time 7 min): 0.3004 and 0.3137 and 0.3136 and 0.3142 | BRET, KOR + Nb39 ([2]; time 8 min): 0.2978 and 0.3081 and 0.3108 and 0.3153 | BRET, KOR + Nb39 ([2]; time 9 min): 0.2922 and 0.311 and 0.3085 and 0.3127 | BRET, KOR + Nb39 ([2]; time 10 min): 0.2996 and 0.3174 and 0.3198 | BRET, KOR + Nb39 ([2]; time 11 min): 0.2967 and 0.3155 and 0.3205 | BRET, KOR + Nb39 ([2]; time 12 min): 0.298 and 0.3156 and 0.3148 and 0.3226 | BRET, KOR + Nb39 ([2]; time 13 min): 0.2971 and 0.3177 and 0.3205 and 0.3168 | BRET, KOR + Nb39 ([2]; time 14 min): 0.2971 and 0.3134 and 0.3132 and 0.3235 | BRET, KOR + Nb39 ([2]; time 15 min): 0.2986 and 0.3191 and 0.3238 and 0.3265 | BRET, KOR + Nb39 ([2]; time 16 min): 0.2964 and 0.3182 and 0.3184 and 0.324 | BRET, KOR + Nb39 ([2]; time 17 min): 0.3018 and 0.3186 and 0.3227 and 0.3317 | BRET, KOR + Nb39 ([2]; time 18 min): 0.3003 and 0.3158 and 0.3185 and 0.326 | BRET, KOR + Nb39 ([2]; time 19 min): 0.3043 and 0.3186 and 0.3228 and 0.323 | BRET, KOR + Nb39 ([2]; time 20 min): 0.2961 and 0.3231 and 0.3183 and 0.3325 | BRET, KOR + Nb39 ([2]; time 21 min): 0.3008 and 0.3186 and 0.3235 | BRET, KOR + Nb39 ([2]; time 22 min): 0.3025 and 0.3173 and 0.3147 and 0.3318 | BRET, KOR + Nb39 ([2]; time 23 min): 0.2987 and 0.3226 and 0.3296 | BRET, KOR + Nb39 ([2]; time 24 min): 0.2996 and 0.3206 and 0.3159 and 0.3334 | BRET, KOR + Nb39 ([2]; time 25 min): 0.3041 and 0.3179 and 0.3117 and 0.3236 | BRET, KOR + Nb39 ([2]; time 26 min): 0.2994 and 0.3089 and 0.3198 and 0.3347 | BRET, KOR + Nb39 ([2]; time 27 min): 0.3042 and 0.3155 and 0.3211 and 0.3323 | BRET, KOR + Nb39 ([2]; time 28 min): 0.2989 and 0.303 and 0.3151 and 0.3345 | BRET, KOR + Nb39 ([2]; time 29 min): 0.2966 and 0.3193 and 0.305 and 0.3267 | BRET, KOR + Nb39 ([2]; time 30 min): 0.2958 and 0.3183 and 0.3167 and 0.3297 | t1/2 of decrease in Nb6-KOR BRET ([3]; 10 µM Sal A added): 50 ± 10 s | BRET, KOR + Nb6 ([3]; time 5 min): 1.409 and 1.4035 and 1.421 and 1.389 | BRET, KOR + Nb6 ([3]; time 6 min): 1.298 and 1.281 and 1.268 and 1.228 | BRET, KOR + Nb6 ([3]; time 7 min): 1.173 and 1.165 and 1.166 and 1.137 | BRET, KOR + Nb6 ([3]; time 8 min): 1.122 and 1.113 and 1.12 and 1.093 | BRET, KOR + Nb6 ([3]; time 9 min): 1.088 and 1.0779 and 1.094 and 1.0747 | BRET, KOR + Nb6 ([3]; time 10 min): 1.082 and 1.078 and 1.0874 and 1.065 | BRET, KOR + Nb6 ([3]; time 11 min): 1.074 and 1.07 and 1.083 and 1.058 | BRET, KOR + Nb6 ([3]; time 12 min): 1.074 and 1.063 and 1.076 and 1.058 | BRET, KOR + Nb6 ([3]; time 13 min): 1.075 and 1.061 and 1.082 and 1.064 | BRET, KOR + Nb6 ([3]; time 14 min): 1.069 and 1.063 and 1.08 and 1.062 | BRET, KOR + Nb6 ([3]; time 15 min): 1.083 and 1.067 and 1.08 and 1.061 | BRET, KOR + Nb6 ([3]; time 16 min): 1.077 and 1.067 and 1.078 and 1.056 | BRET, KOR + Nb6 ([3]; time 17 min): 1.076 and 1.07 and 1.085 and 1.064 | BRET, KOR + Nb6 ([3]; time 18 min): 1.081 and 1.07 and 1.082 and 1.068 | BRET, KOR + Nb6 ([3]; time 19 min): 1.086 and 1.077 and 1.091 and 1.066 | BRET, KOR + Nb6 ([3]; time 20 min): 1.081 and 1.073 and 1.083 and 1.0658 | BRET, KOR + Nb6 ([3]; time 21 min): 1.087 and 1.079 and 1.095 and 1.076 | BRET, KOR + Nb6 ([3]; time 22 min): 1.074 (2×) and 1.079 and 1.0714 | BRET, KOR + Nb6 ([3]; time 23 min): 1.088 and 1.082 and 1.074 and 1.0724 | BRET, KOR + Nb6 ([3]; time 24 min): 1.091 and 1.078 and 1.081 and 1.076 | BRET, KOR + Nb6 ([3]; time 25 min): 1.086 and 1.081 and 1.078 and 1.0719 | BRET, KOR + Nb6 ([3]; time 26 min): 1.084 and 1.082 and 1.088 and 1.07 | BRET, KOR + Nb6 ([3]; time 27 min): 1.079 and 1.0834 and 1.085 and 1.083 | BRET, KOR + Nb6 ([3]; time 28 min): 1.084 and 1.076 and 1.086 (2×) | BRET, KOR + Nb6 ([3]; time 29 min): 1.0858 and 1.081 (2×) and 1.075

C[C@@H](NC(=O)[C@@H](N)Cc1ccc(O)cc1)C(=O)NCC(=O)N(C)[C@@H](Cc1ccccc1)C(=O)NCCO [DAMGO]
response (Figure S9b) ([4]; M -6): 34.0976 and 31.8296 and 33.2096 | response (Figure S9b) ([4]; M -7): 78.9066 and 72.2446 and 76.3636 | response (Figure S9b) ([4]; M -8): 84.8057 and 83.6246 and 84.5411 | response (Figure S9b) ([4]; M -9): 92.3096 and 93.4924 | response (Figure S9b) ([4]; M -10): 90.9034 and 89.2915 and 90.6654 | response (Figure S9b) ([4]; M -11): 93.7193 and 94.9714 and 95.2973 | response (Figure S9b) ([4]; M -12): 99.6463 and 100.354
